Assay results from patent US12685312B2, “Sulfonamide apyrase inhibitors” (Texas Crop Science, Inc., priority 2022, dated 2026).

How the values were obtained:
apyrase = assay: Screen for apyrase inhibitors (Method 1, in vitro phosphate-release absorbance assay); format: biochemical; conditions: inhibitor conc at 1 mM stock, 1 hr room temperature, absorbance 630 nm; rounded average of two assay results
Summary of the method: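 Phosphate-release colorimetric assay (Windsor method) in 60 mM Hepes, 3 mM MgCl2, 3 mM CaCl2, 3 mM ATP, pH 6.5, with compound or DMSO control added. Released phosphate developed with ammonium molybdate and ascorbic acid/TCA, then stopped with citrate/acetic acid.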

[1] = system: Asian Soya Rust (Phakopsora pachyrhizi) on soybean; assay: Greenhouse crop test (Method 3), Asian Soya Rust on soybean; format: in vivo; conditions: Proline 0.15 L/ha
Experimental: (§1) Method 3: Greenhouse Crop Tests
(§2) In this method, exemplary compounds were evaluated for their ability to control Zymoseptoria tritici on wheat, Botrytis cinerea on tomatoes, Asian Soya Rust (Phakopsora pachyrhizi) on soybean, and Brown Rust (Puccinia recondita) on wheat, in a controlled greenhouse environment in combination with one of four fungicides, Amistar, Imtrex, Proline or Balaya. In these studies, soybean cultivar Siverka, tomato (Money maker) and wheat plants (JB Diego) were used. […] Each plant was evaluated once the disease symptoms were fully expressed between seven to twenty days (depending on the pathogen) for % control of the disease. […] Also, each commercial fungicide was tested on its own as a part of each treatment, this being benchmark against which the experimental compounds were evaluated. […]

[2] = system: plant pathogenic fungi (Zymoseptoria tritici strains, Microdochium nivale); assay: In vitro combination assay (Method 2), overall comparison with Roux Compound 13; format: cell-based; conditions: azoxystrobin, fluxapyroxad, desthio prothioconazole; three fungal strains
Experimental: Method 2: In Vitro Assessment of Combination Activity
Selected compounds were assessed in combination with fungicides against a range of commercially important plant pathogenic fungi.
The test was conducted as follows. A fungicide was applied to a fungal plant pathogen at a rate slightly below that at which it gave any control, in combination with a suitable dose of the test compound. The test compound was recorded as active if control of the pathogen was observed.
In more detail, the test was conducted as follows. For each combination of fungicide, pathogen and test compound, the following wells were used. Well 1 contained a fungal pathogen growing on agar, and a fungicide at a rate just below that at which it gave any control of the pathogen. Well 2 was the same as Well 1, except that the test compound was also added at Rate 1. Well 3 was the same as Well 2, except that the test compound was added at Rate 2, where Rate 2 was higher than Rate 1. Finally, as a benchmark, Well 4 was the same as Well 1, except that it contained the fungicide at a higher rate, at which it gave partial control of the pathogen. Each of the Wells 1 to 4 were run in duplicate, giving a total of 8 wells for each combination of fungicide, pathogen and test compound. For each well, after a suitable period of incubation, a visual assessment of the % control of the pathogen by the fungicide was made.
The following fungicides were used in this assay: azoxystrobin, fluxapyroxad, and desthio prothioconazole. The following fungal pathogens were used in this assay: First, a strain of Zymoseptoria tritici with a reduced susceptibility to strobilurin fungicides; second a strain of Zymoseptoria tritici with a reduced susceptibility to SDHI fungicides (i.e., those that inhibit succinate dehydrogenase); and third, Microdochium nivale.

[3] = system: Brown Rust (Puccinia recondita) on wheat; assay: Greenhouse crop test (Method 3), Brown Rust on wheat; format: in vivo; conditions: Imtrex 0.45 L/ha
Experimental: as §1, §2

[4] = system: Zymoseptoria tritici on wheat; assay: Greenhouse crop test (Method 3), Zymoseptoria tritici on wheat; format: in vivo; conditions: Imtrex 0.02 L/ha
Experimental: as §1
In this method, exemplary compounds were evaluated for their ability to control Zymoseptoria tritici on wheat, Botrytis cinerea on tomatoes, Asian Soya Rust (Phakopsora pachyrhizi) on soybean, and Brown Rust (Puccinia recondita) on wheat, in a controlled greenhouse environment in combination with one of four fungicides, Amistar, Imtrex, Proline or Balaya. In these studies, soybean cultivar Siverka, tomato (Money maker) and wheat plants (JB Diego) were used. Seeds were sown in 9 cm diameter pots to a depth of 1 to 2 cm using Petersfield potting compost (75% medium grade peat, 12% screened sterilized loam, 3% medium grade vermiculite, 10% grit (5 mm screened, lime free), 1.5 kg PG mix per m3, lime to pH5.5-6.0 and wetting agent (Vitax Ultrawet 200 ml per m3) and germinated/grown at 23 C under a 16 h day/8 h night light regime. Plants were treated two to three weeks after sowing when they were at the BBCH 11 growth stage (first pair of true leaves (unifoliate) unfolded. A track sprayer was used to treat the plants with the mixture of commercial fungicide and test compound using a water volume of 200 L/ha. Plants were inoculated with the appropriate fungi (pathogen) 24 hours after treatment. Fungal pathogens used were Botrytis cinerea (Grey mold on tomato plants), Zymoseptoria tritici (Septoria leaf blotch on wheat plants), Puccinia triticina (Brown rust on wheat plants) and Phakopsora pachyrhizi (Asian soy rust on soybean plants). Four replicates were used for each combination of fungicide, pathogen and test compound. Each plant was evaluated once the disease symptoms were fully expressed between seven to twenty days (depending on the pathogen) for % control of the disease. Appropriate controls were used for all experiments, including an ‘inoculation check’ wherein plants were inoculated with their specific pathogen to assess disease levels. Also, each commercial fungicide was tested on its own as a part of each treatment, this being benchmark against which the experimental compounds were evaluated. […] That is, the present compounds, although not fungicidal by themselves, enhance the activity of fungicides, thus the enhancer compounds work synergistically in combination with fungicides to control disease.
In these studies the fungicide was applied at the following rates

[5] = system: Botrytis cinerea on tomatoes; assay: Greenhouse crop test (Method 3), Botrytis cinerea on tomatoes; format: in vivo; conditions: Botrytis cinerea on tomato, Imtrex 0.005 L/ha
Experimental: as §1
In this method, exemplary compounds were evaluated for their ability to control Zymoseptoria tritici on wheat, Botrytis cinerea on tomatoes, Asian Soya Rust (Phakopsora pachyrhizi) on soybean, and Brown Rust (Puccinia recondita) on wheat, in a controlled greenhouse environment in combination with one of four fungicides, Amistar, Imtrex, Proline or Balaya. In these studies, soybean cultivar Siverka, tomato (Money maker) and wheat plants (JB Diego) were used. Seeds were sown in 9 cm diameter pots to a depth of 1 to 2 cm using Petersfield potting compost (75% medium grade peat, 12% screened sterilized loam, 3% medium grade vermiculite, 10% grit (5 mm screened, lime free), 1.5 kg PG mix per m3, lime to pH5.5-6.0 and wetting agent (Vitax Ultrawet 200 ml per m3) and germinated/grown at 23 C under a 16 h day/8 h night light regime. Plants were treated two to three weeks after sowing when they were at the BBCH 11 growth stage (first pair of true leaves (unifoliate) unfolded. A track sprayer was used to treat the plants with the mixture of commercial fungicide and test compound using a water volume of 200 L/ha. Plants were inoculated with the appropriate fungi (pathogen) 24 hours after treatment. Fungal pathogens used were Botrytis cinerea (Grey mold on tomato plants), Zymoseptoria tritici (Septoria leaf blotch on wheat plants), Puccinia triticina (Brown rust on wheat plants) and Phakopsora pachyrhizi (Asian soy rust on soybean plants). Four replicates were used for each combination of fungicide, pathogen and test compound. Each plant was evaluated once the disease symptoms were fully expressed between seven to twenty days (depending on the pathogen) for % control of the disease. Appropriate controls were used for all experiments, including an ‘inoculation check’ wherein plants were inoculated with their specific pathogen to assess disease levels. Also, each commercial fungicide was tested on its own as a part of each treatment, this being benchmark against which the experimental compounds were evaluated. […]

SMILES	% Inhibition of Apyrase (apyrase)	enhancement of the activity of Proline [1]	enhancer activity in the combination assay compared with Roux Compound 13 [2]	additional Brown Rust control benefit in combination with Imtrex over Imtrex alone [3]	enhancement of Imtrex over Imtrex alone [4]	enhancement in combination with Imtrex over Imtrex alone [5]
O=C(Nc1ccc(Br)cc1)c1cccc(S(=O)(=O)Nc2ccc(F)cc2)c1 [I-222, N-(4-bromophenyl)-3-(N-(4-fluorophenyl)sulfamoyl)benzamide]	71%	greater than 60%	superior enhancer activity than Roux Compound 13			
Cc1ccc(NC(=O)c2cccc(S(=O)(=O)Nc3cccc(Cl)c3)c2)nc1 [I-595, 3-(N-(3-chlorophenyl)sulfamoyl)-N-(5-methylpyridin-2-yl)benzamide]	36%			greater than 40%		
O=C(Nc1ccccc1S(=O)(=O)N1CCCC1)c1cccc(C(F)(F)F)c1 [I-826, N-(2-(pyrrolidin-1-ylsulfonyl)phenyl)-3-(trifluoromethyl)benzamide]	40%			greater than 50%		

Second part, led by results:

% Inhibition of Apyrase (apyrase)	SMILES	enhancement of the activity of Proline [1]	enhancer activity in the combination assay compared with Roux Compound 13 [2]	additional Brown Rust control benefit in combination with Imtrex over Imtrex alone [3]	enhancement of Imtrex over Imtrex alone [4]	enhancement in combination with Imtrex over Imtrex alone [5]
79%	O=C1CSc2ccc(C(=O)Nc3cccc(S(=O)(=O)Nc4ccc(Br)cc4)c3)cc2N1 [I-198, N-(3-(N-(4-bromophenyl)sulfamoyl)phenyl)-3-oxo-3,4-dihydro-2H-benzo[b][1,4]thiazine-6-carboxamide]	over 90%	superior enhancer activity than Roux Compound 13		about 30%	
30%	Cc1ccc(C(=O)Nc2ccccc2S(=O)(=O)Nc2ccccc2)cc1F [I-236, 3-fluoro-4-methyl-N-(2-(N-phenylsulfamoyl)phenyl)benzamide]		superior enhancer activity than Roux Compound 13			about 30%
